# Measurements reported in publication PMC2948534 (American journal of respiratory cell and molecular biology, 2005).
# Ends that are not written are not given here.
# Assays:
# A549 epithelial cells = experiment: LDH release; format: cell-based, human; conditions: for effect of receptor inhibitor on LL-37-induced LDH release: 1 h pretreatment (pertussis toxin 100 ng/ml; PD1683 2 μM; AG1478 1 μM), then 50 μg/ml LL-37 for 24 h, DMEM without serum
# [1] = tested on: airway epithelial or monocyte-like cell line; conditions: presence of FBS; cited from earlier work
compound,measurement,setting,value
pertussis toxin,effect of receptor inhibitor on LL-37-induced LDH release,A549 epithelial cells,No decrease in LDH release
CRAMP,LDH release effects at >100 μg/ml in the presence of human serum,"A549 epithelial cells; 10% human serum, data not shown",similarly suppressed
same,cell death compared with LL-37,A549 epithelial cells; A549 cells,induced significantly less cell death than LL-37
same,concentrations at which no statistically significant LDH release was observed,A549 epithelial cells; data not shown,< 100 µg/mL
C=CC(=O)Nc1ccc2ncnc(Nc3cccc(Br)c3)c2c1 [PD1683],effect of receptor inhibitor on LL-37-induced LDH release,A549 epithelial cells,No decrease in LDH release
COc1cc2ncnc(Nc3cccc(Cl)c3)c2cc1OC [AG1478],effect of receptor inhibitor on LL-37-induced LDH release,A549 epithelial cells,No decrease in LDH release
"indolicidin: cathelicidin peptide (ILPWKWPWWPWRR; ends and bridges not checked; UniProt P33046 131-143, looked up)",induction of cell death,[1],do not induce cell death
